Assay results from US5747506A, “Isoquinoline compounds, compositions containing them and their pharmaceutical uses” (Novartis AG, priority 1993, dated 1998).
Where two headings read alike, the source gives them in different places.

Key:
[1] = system: bacterial endotoxin (LPS) induced airways obstruction and lethality; assay: TEST E: Bacterial Endotoxin [LPS] Induced Lethality in the Guinea Pig; assay type: in vivo; details: 100/μg/kg/min.; hydrogen-oxalate salt
Experimental: TEST E: Bacterial Endotoxin [LPS] Induced Lethality in the Guinea Pig
Guinea-pigs are anesthetized by intraperitoneal injection of sodium phenobarbitone (100 mg/kg.) supplemented with sodium pentobarbitone (30 mg/kg) and paralyzed by intramuscular injection of gallamine (10 mg/kg). Animals are ventilated (8 ml/kg, 1 Hz) with a mixture of air and oxygen (40:60, v/v) via a tracheal cannula. Ventilation is monitored at the trachea by a pneumotachograph connected to a differential pressure transducer. […] Blood pressure and heart rate are recorded from the carotid artery using a pressure transducer and a cannula is introduced into the right jugular vein to allow intravenous infusion of test substance min prior to and concomitantly with infusion of LPS at a constant rate (3.0 ml/hr to give 10 mg/kg/hr) from an infusion pump. The left jugular vein is cannulated for administration of (±) propranolol (1 mg/kg) injected as an intravenous bolus. […] Experimental data is stored continuously and, on termination of an experiment, experimental traces or processed data are plotted.
Infusion of [±propanolol] ensures consistent susceptibility to LPS. In anesthetized animals pre-treated with [±] propanalol, infusion of LPS in the above model induces progressive airway obstruction. Death consequential to endotoxin shock usually occurs within ca. 1 hr of terminating LPS infusion.

PDE IV = assay: inhibition of PDE IV added to plasma after administration to conscious dogs; assay type: in vivo; details: up to 0.3 mg/kg i.v. or 0.6 mg/kg p.o., hydrogen-oxalate salt
human eosinophils = assay: TEST B: Inhibition of Eosinophil Activation by fMLP (oxidative burst, chemiluminescence); assay type: cell-based; details: fMLP 1 μM, hydrogen-oxalate salt
Experimental: TEST B: Inhibition of Eosinophil Activation by formyl-MetLeuPhe (fMLP)
Purified human eosinophils (10^4 /well in 0.2 ml HBSS) are stimulated with fMLP (1 μM) in the presence of lucigenin (25 μM). Inhibition of the oxidative burst (measured as changes in chemiluminescence) is determined from dose response curves using the logistic equation.

[2] = system: TNFα secretion, THP-1 cells; assay: TEST C: Inhibition of TNFα Secretion (THP-1 cells, γ-interferon/LPS); assay type: cell-based; details: Homo sapiens, LPS, γ-interferon, 40 hours, hydrogen-oxalate salt
Experimental: TEST C: Inhibition of TNFα Secretion
900 μl THP-1 cells (0.5 10^6 cells together with 100 U γ-interferon/0.9 ml) are pipetted into 24 well culture plates and followed by 100 μl test substance. After 3 hours at 37° C. in 5% CO2 /95% air, 10 μl LPS 5 μg/ml is added and the incubation continued for a further 40 hours. Appropriate controls are also included. The media are then removed and clarified by centrifugation at 1000 g for 10 min. 1.0 ml digitonin 0.01% is added to the wells to lyse the cells which are loosened by scraping with a rubber policeman and left at 4° C. for 10 min. Lactate dehydrogenase measurements are then performed immediately and the samples stored at […] until the other determinations can be performed. The assays are: IL-1β (medium), TNF-α (medium), and DNA (lysates). IL-1β, and TNF-α assays are determined using commercially available ELISA kits.
The method of Kapuscinski et al Anal. Biochem. (83, 252-257 (1977) is used to assay DNA. 300 μl samples of cell lysate in 0.01% digitonin are mixed with 750 μl tris-HCl buffer pH 7.0 (containing 13.2 mM Na2 SO4), 300 μl H2 O and 150 μl DAPI (4',6-diamidino-2-phenylindole.2HCl) 2 μg/ml. The fluorescence is then measured at 372 nm (excitation) and 454 nm (emission) using a Perkin Elmer 3000 fluorimeter. The samples are read against a standard curve of calf thymus DNA (0.5 to 10 μg/ml) run at the same time. […]

[3] = system: SRS-A induced bronchoconstriction; assay: TEST H experiment 2: Suppression of SRS-A Induced Bronchoconstriction (tracheal instillation, inhaled ovalbumin); assay type: in vivo, guinea pig (Dunkin-Hartley); details: Cavia porcellus, i.t., hydrogen-oxalate salt
Experimental: TEST H: Suppression of SRS-A Induced Bronchoconstriction
(§1) Guinea pigs (Dunkin-Hartley, male, 400-600 g) are anesthethized with phenobarbital (100 mg/kg i.p.) and pentobarbital (30 mg/kg i.p.) and paralyzed with gallamine (100 mg/kg i.m.) Animals are ventilated via a tracheal cannula (8 ml/kg, 1 Hz) with a mixture of air and oxygen (45:55 v/v). Blood pressure and heart rate are recorded at the carotid artery. Ventilation is monitored by a Fleisch flow transducer in line with the inspiratory circuit. When making measurements of flow, coincident pressure changes in the thorax are monitored directly via an intrathoracic trochar, permitting display of differential pressure relative to the trachea. From this information in relation to flow and differential pressure, resistance [R1 ] and compliance [Cdyn ] are calculated using a digital respiratory analyzer for each respiratory cycle.
Test animals are passively sensitized 24 hrs. prior to testing by administration of homologous anti-ovalbumin antiserum (1 ml i.v.). […] Allergen challenge is achieved by administration of ovalbumin (OA) and the resultant bronchoconstrictor response is used as a functional read-out of SRS-A activity.
2) In the second, animals are challenged with OA (1.0 or 1.8 mg/ml inhaled over 60 breaths) and the effect of test compound, administered at varying dosage directly into the lung by tracheal instillation, is measured.

[4] = stock solution of the hydrogen-oxalate salt; assay type: physicochemical; details: 10% Tween in 80% abs. C2H5OH
Experimental: [All experiments described below are suitably done using the hydrogen-oxalate salt of the test compound, e.g. compound of example 1. In the case of the example 1 compound a stable 30 mM stock solution of the hydrogen-oxalate salt may be prepared with 10% Tween in 80% abs. C2 H5 OH. For pharmacological experiments it should be diluted at least 1:10,000.]

[5] = hemodynamics, plasma glucose and tolerability in conscious dogs; assay type: in vivo, dog; details: hydrogen-oxalate salt
[6] = system: lymphocytes from the spleen of Balb/c and CBA mice; assay: TEST L: Murine Mixed Lymphocyte Reaction; assay type: cell-based; details: Mus musculus, 120 h, thymidine incorporation, 5 days, hydrogen-oxalate salt
Experimental: TEST L: Murine Mixed Lymphocyte Reaction
Ca. 0.5×10^6 lymphocytes from the spleen of female (8-10 weeks) Balb/c mice are incubated for 5 days in 0.2 ml cell growth medium with ca. 0.5×10^6 lymphocytes from the spleen of female (8-10 weeks) CBA mice. Test substance is added to the medium at various concentrations. Activity is assessed by ability to suppress proliferation associated DNA synthesis as determined by incorporation of radiolabelled thymidine.

cardiovascular effects = assay: Doppler aortic flow test in the rabbit; assay type: in vivo; details: hydrogen-oxalate salt
From the text: Thus in a series of experiments using the Doppler aortic flow test in the rabbit [J. Pharmacol. Meth.

[7] = system: human PDE IV (neutrophils); assay: TEST A: Human PDE Isoenzyme Inhibition Assay, type IV; assay type: biochemical
From the text: C2 H5 OH. For pharmacological experiments it should be diluted at least 1:10,000.]
TEST A: Human PDE Isoenzyme Inhibition Assay
All isoenzyme preparations are derived from human sources. Type III and IV preparations are obtained taking advantage of the predominance of type III isoenzymes in platelets and of type IV isoenzymes in neutrophils applying the following techniques:
Neutrophils (type IV) and platelets (types II and III) are obtained from human blood and sonicated (Branson probe, 4×15 sec.). Human lung (types I and V) is obtained from patients undergoing surgery and homogenized using a Polytron homogenizer (two bursts of 30 sec).
Isoenzyme preparations: PDE III and IV (substrate cAMP 1 μM) preparations consist of low-speed supernates of the platelet and neutrophil homogenates, respectively.

[8] = system: methacholine induced bronchoconstriction; assay: TEST J: Suppression of Methacholine (MeCH) Induced Broncho-Constriction in the Rhesus Monkey; assay type: in vivo; details: hydrogen-oxalate salt
Experimental: TEST J: Suppression of Methacholine (MeCH) Induced Broncho-Constriction in the Rhesus Monkey
Male rhesus monkeys (body weight 10.3-13.2 kg) are anesthetized with ketamine (20 mg/kg i.m., initial) and maintained with thiopental (8 mg/kg/h i.v.) via an indwelling catheter in the left saphenous vein, throughout the experimental procedure. Animals are allowed to breathe spontaneously, and are placed in the left lateral incumbent position. The larynx, eppiglottis and pharynx are anesthetized (topical xylocaine) allowing introduction and placement of a cuffed 4.5 mm pediatric endotracheal tube.
MeCH is administered as an aerosol (saline vehicle: aerosol generated by a nebulizer operated under an airflow of 6 l/min, mean particle size of 3.5 μm) with a 2 minute exposure, tidal breathing. All tests employ a 0.6 mg/ml solution or 2.5 mg/ml solution in the case of poor MeCH responders. MeCH bronchoconstrictor tests are spaced 30 min apart, with administration of test substance (in a lactose vehicle suspension, 1 mg/ml, 1 ml administered under bronchoscopic control, 1 cm above the carina) 15 min prior to MeCH challenge.
Test substance is administered in a cumulative manner. Bronchodilator activity is estimated as the % inhibition of bronchoconstrictor response to MeCH on resistance.

[9] = system: SRS-A induced bronchoconstriction; assay: TEST H experiment 1: Suppression of SRS-A Induced Bronchoconstriction (i.v. infusion); assay type: in vivo, guinea pig (Dunkin-Hartley); details: FPL 55712 10 mg/kg i.v.
Experimental: as §1, with “TEST H: Suppression of SRS-A Induced Bronchoconstriction Guinea” for “Guinea”, “cycle. Test animals are passively sensitized 24 hrs. prior to testing by administration of homologous anti-ovalbumin antiserum (1 ml i.v.). […] Allergen challenge is achieved by administration of ovalbumin (OA) and the resultant bronchoconstrictor response is used as a functional read-out of SRS-A activity. […]” for “cycle.”

SRS-A = assay: TEST D: Inhibition of SRS-A Production (ovalbumin challenge); assay type: in vivo, guinea-pig; details: 10 mg/kg i.v. 1 minute prior to challenge
Experimental: TEST D: Inhibition of SRS-A Production Guinea-pigs are passively sensitized 24 hrs. prior to testing by i.v. administration of 1 ml homologous anti-ovalbumin antiserum. Prior to antigen challenge test animals are pre-treated with 0.32 mg/kg propanol i.v. (inhibition of endogenous catecholamines), 3.2 mg/kg, i.v. mepyramine (H1 receptor antagonism) and 3.2 mg/kg, i.v. indomethacin (inhibition of cyclo-oxygenase). Allergen challenge is effected by administration of 32 μg/kg, ovalbumin i.v. and the resultant constrictor response on airways resistance used as a functional read out of SRS-A activity. Separate test groups receive 10 mg/kg, i.v. FPL 55712 (an LTD4 receptor antagonist) 1 minute prior to challenge or test substance at varying dosage, i.v. by infusion, beginning 16 minutes prior to challenge.

[10] = up to 0.3 mg/kg i.v. or 0.6 mg/kg p.o.

With `CCc1cc2cc(OCCO)c(OC)cc2c(-c2cc(OC(C)C)cc(OC(C)C)c2)n1` [Example 1, 1-(3,5-diisopropoxyphenyl)-3-ethyl-6-(2-hydroxyethoxy)-7-methoxy-isoauinoline] the “lethality (TEST E)” value [1] was “no animals dying”, the “protection (TEST E)” value [1] was “COMPLETE PROTECTION” and the “inhibition of PDE IV added to plasma” value (PDE IV) was “substantial and long-lasting inhibition”. The IC50 (human eosinophils) was 60 ± 30 nM, the IC50 [2] was roughly 100 nM and the ED50 ([3]; ovalbumin 1 mg/ml, read-out: ED50 vs. ovalbumin @1 mg/ml) was 5 µg/kg. For the same compound, the ED50 ([3]; ovalbumin 1.8 mg/ml, read-out: ED50 vs. ovalbumin @1.8 mg/ml) was 50 µg/kg, the stable stock solution [4] was 30 mM and the tolerability ([5]; all dosages) was “generally well tolerated”. For the same compound, the “change in heart rate” value [5, 10] was “no or only minimal change”, the “change in mean arterial pressure” value [5, 10] was “no or only minimal change” and the “change in plasma glucose concentrations” value [5, 10] was “no or only minimal change”. For the same compound, the IC50 [6] was 12 ± 9 nM, the “heart rate (rabbit)” value (cardiovascular effects; of the order of 1 mg/kg) was “only slight decrease in heart rate” and the cardiovascular side effects (cardiovascular effects; up to the order of 0.3 mg/kg) was “no cardiovascular side effects”. The IC50 ([7]; TEST A, 1 μM [3H]-cyclic AMP substrate, hydrogen-oxalate salt) was 2.9 ± 1.2 nM, the “fold greater activity in inhibiting the type IV isoenzyme than other isoenzyme preparations tested” value ([7]; type IV vs other isoenzyme preparations, hydrogen oxalate salt) was “at least 180 fold” and the ED20 ([8]; Macaca mulatta, inhaled or nasal, MeCH aerosol, test substance in lactose suspension) was 0.0414 ± 0.0099 µg/kg. The “potency less than that of Albuterol (TEST J)” value ([8]; times less potent than Albuterol) was “ca. 3.5 ×”.
In the case of `CCCc1c(OCC(O)COc2ccc3c(=O)cc(C(=O)O)oc3c2CCC)ccc(C(C)=O)c1O` (stereo not drawn) [FPL 55712], the “bronchoconstrictor effect of OA (experiment 1)” value [9] is reported as “abolished” and the “effect on bronchoconstriction (TEST D)” value (SRS-A) is reported as “abolition of bronchoconstriction”.
